Measurements as given in the NIST ThermoML archive (doi:10.1016/j.jct.2004.09.021).
Numbers after ± are expanded uncertainties.

What was measured:
[1] = xn = mol fraction of the nth substance listed; conditions: 101 kPa, Liquid
[2] = refractive index (Na D-line) (dimensionless); xn = mol fraction of the nth substance listed; conditions: 101 kPa, Liquid
[3] = refractive index (Na D-line) (dimensionless); conditions: 101.33 kPa, Liquid
[4] = 101 kPa, Liquid

COc1ccccc1 [anisole] + CCCCCCCCCCCC
Conditions | mass density, 293.15 K [kg/m3] | mass density, 298.15 K [kg/m3] | mass density, 303.15 K [kg/m3] | refractive index, 293.15 K | refractive index, 298.15 K | refractive index, 303.15 K | viscosity, 293.15 K [mPa·s] | viscosity, 298.15 K [mPa·s] | viscosity, 303.15 K [mPa·s]
[1], x1 = 0.0992 | 760.26 ± 0.75 | 756.57 ± 0.76 | 752.87 ± 0.76 | – | – | – | 1.413 ± 0.023 | 1.312 ± 0.022 | 1.197 ± 0.02
[1], x1 = 0.2015 | 773.6 ± 0.73 | 769.83 ± 0.74 | 766.07 ± 0.74 | – | – | – | 1.341 ± 0.022 | 1.248 ± 0.021 | 1.138 ± 0.019
[1], x1 = 0.2969 | 787.75 ± 0.71 | 783.97 ± 0.72 | 780.1 ± 0.72 | – | – | – | 1.272 ± 0.021 | 1.181 ± 0.02 | 1.081 ± 0.018
[1], x1 = 0.4102 | 807.23 ± 0.69 | 803.3 ± 0.69 | 799.35 ± 0.7 | – | – | – | 1.19 ± 0.02 | 1.104 ± 0.019 | 1.003 ± 0.017
[1], x1 = 0.4898 | 822.92 ± 0.67 | 818.98 ± 0.67 | 814.93 ± 0.68 | – | – | – | 1.138 ± 0.019 | 1.052 ± 0.018 | 0.9616 ± 0.017
[1], x1 = 0.6099 | 850.24 ± 0.64 | 846.1 ± 0.64 | 841.96 ± 0.64 | – | – | – | 1.074 ± 0.018 | 0.9944 ± 0.017 | 0.9147 ± 0.016
[1], x1 = 0.702 | 875.28 ± 0.61 | 871.03 ± 0.61 | 866.78 ± 0.62 | – | – | – | 1.039 ± 0.018 | 0.9639 ± 0.016 | 0.8922 ± 0.015
[1], x1 = 0.8023 | 907.62 ± 0.58 | 903.24 ± 0.58 | 898.86 ± 0.59 | – | – | – | 1.032 ± 0.017 | 0.9569 ± 0.016 | 0.8858 ± 0.015
[1], x1 = 0.8976 | 944.56 ± 0.56 | 940.04 ± 0.56 | 935.51 ± 0.56 | – | – | – | 1.046 ± 0.018 | 0.9718 ± 0.017 | 0.9132 ± 0.016
[1], x1 = 1 | 993.81 ± 0.53 | 989.15 ± 0.53 | 984.42 ± 0.53 | – | – | – | 1.085 ± 0.018 | 1.017 ± 0.017 | 0.9285 ± 0.016
[2], x1 = 0.106 | – | – | – | 1.4239 ± 0.0013 | 1.4199 ± 0.0011 | 1.4163 ± 0.001 | – | – | –
[2], x1 = 0.208 | – | – | – | 1.4289 ± 0.0012 | 1.4251 ± 0.0011 | 1.4213 ± 0.0011 | – | – | –
[2], x1 = 0.29 | – | – | – | 1.4335 ± 0.0012 | 1.4298 ± 0.0011 | 1.4263 ± 0.001 | – | – | –
[2], x1 = 0.391 | – | – | – | 1.4406 ± 0.0011 | 1.4371 ± 0.0011 | 1.4339 ± 0.001 | – | – | –
[2], x1 = 0.4886 | – | – | – | 1.4488 ± 0.0011 | 1.4455 ± 0.001 | 1.4426 ± 0.001 | – | – | –
[2], x1 = 0.607 | – | – | – | 1.4601 ± 0.0011 | 1.457 ± 0.001 | 1.4545 ± 0.0009 | – | – | –
[2], x1 = 0.7055 | – | – | – | 1.4707 ± 0.0011 | 1.4677 ± 0.001 | 1.4654 ± 0.0009 | – | – | –
[2], x1 = 0.7845 | – | – | – | 1.4809 ± 0.0011 | 1.4779 ± 0.001 | 1.4756 ± 0.0009 | – | – | –
[2], x1 = 0.88 | – | – | – | 1.4959 ± 0.0011 | 1.493 ± 0.001 | 1.4908 ± 0.0009 | – | – | –
[2], x1 = 1 | – | – | – | 1.5161 ± 0.0009 | 1.5141 ± 0.0009 | 1.5129 ± 0.0009 | – | – | –

CCCCCCCCCC [decane]
Conditions | mass density, 293.15 K [kg/m3] | mass density, 298.15 K [kg/m3] | mass density, 303.15 K [kg/m3] | refractive index, 293.15 K | refractive index, 298.15 K | refractive index, 303.15 K | viscosity, 293.15 K [mPa·s] | viscosity, 298.15 K [mPa·s] | viscosity, 303.15 K [mPa·s]
[3] | – | – | – | 1.4148 ± 0.001 | 1.4118 ± 0.001 | 1.4089 ± 0.001 | – | – | –
[4] | 729.91 ± 0.8 | 726.16 ± 0.8 | 722.36 ± 0.81 | – | – | – | 0.9169 ± 0.016 | 0.8512 ± 0.015 | 0.7898 ± 0.014

CCCCCCCCCC [decane] + COc1ccccc1
x2 = 0
Conditions | mass density, 293.15 K [kg/m3] | mass density, 298.15 K [kg/m3] | mass density, 303.15 K [kg/m3] | refractive index, 293.15 K | refractive index, 298.15 K | refractive index, 303.15 K | viscosity, 293.15 K [mPa·s] | viscosity, 298.15 K [mPa·s] | viscosity, 303.15 K [mPa·s]
[1] | 729.91 ± 0.8 | 726.16 ± 0.8 | 722.36 ± 0.81 | – | – | – | 0.9169 ± 0.016 | 0.8512 ± 0.015 | 0.7898 ± 0.014
[2] | – | – | – | 1.4148 ± 0.001 | 1.4118 ± 0.001 | 1.4089 ± 0.001 | – | – | –

CCCCCCCCCCCC [dodecane] + COc1ccccc1
x2 = 0
Conditions | mass density, 293.15 K [kg/m3] | mass density, 298.15 K [kg/m3] | mass density, 303.15 K [kg/m3] | refractive index, 293.15 K | refractive index, 298.15 K | refractive index, 303.15 K | viscosity, 293.15 K [mPa·s] | viscosity, 298.15 K [mPa·s] | viscosity, 303.15 K [mPa·s]
[1] | 748.78 ± 0.77 | 745.14 ± 0.77 | 741.52 ± 0.78 | – | – | – | 1.487 ± 0.024 | 1.373 ± 0.023 | 1.25 ± 0.021
[2] | – | – | – | 1.421 ± 0.0011 | 1.4172 ± 0.0011 | 1.4135 ± 0.0011 | – | – | –

CCCCCCC [heptane] + COc1ccccc1
x2 = 0
Conditions | mass density, 293.15 K [kg/m3] | mass density, 298.15 K [kg/m3] | mass density, 303.15 K [kg/m3] | refractive index, 293.15 K | refractive index, 298.15 K | refractive index, 303.15 K | viscosity, 293.15 K [mPa·s] | viscosity, 298.15 K [mPa·s] | viscosity, 303.15 K [mPa·s]
[1] | 683.96 ± 0.87 | 679.77 ± 0.88 | 675.5 ± 0.88 | – | – | – | 0.4127 ± 0.0081 | 0.3909 ± 0.0078 | 0.3702 ± 0.0075
[2] | – | – | – | 1.3872 ± 0.0009 | 1.3855 ± 0.0009 | 1.3827 ± 0.001 | – | – | –

CCCCCC [hexane] + COc1ccccc1
x2 = 0
Conditions | mass density, 293.15 K [kg/m3] | mass density, 298.15 K [kg/m3] | mass density, 303.15 K [kg/m3] | refractive index, 293.15 K | refractive index, 298.15 K | refractive index, 303.15 K | viscosity, 293.15 K [mPa·s] | viscosity, 298.15 K [mPa·s] | viscosity, 303.15 K [mPa·s]
[1] | 659.5 ± 0.91 | 654.96 ± 0.92 | 650.42 ± 0.93 | – | – | – | 0.3114 ± 0.0066 | 0.2974 ± 0.0064 | 0.2838 ± 0.0062
[2] | – | – | – | 1.3759 ± 0.001 | 1.3732 ± 0.001 | 1.3709 ± 0.0009 | – | – | –

CCCCCCCCC [nonane] + COc1ccccc1
x2 = 0
Conditions | mass density, 293.15 K [kg/m3] | mass density, 298.15 K [kg/m3] | mass density, 303.15 K [kg/m3] | refractive index, 293.15 K | refractive index, 298.15 K | refractive index, 303.15 K | viscosity, 293.15 K [mPa·s] | viscosity, 298.15 K [mPa·s] | viscosity, 303.15 K [mPa·s]
[1] | 717.59 ± 2.9 | 713.71 ± 3 | 709.81 ± 3 | – | – | – | 0.7136 ± 0.013 | 0.6715 ± 0.012 | 0.6307 ± 0.011
[2] | – | – | – | 1.404 ± 0.0009 | 1.4027 ± 0.0009 | 1.4002 ± 0.001 | – | – | –

CCCCCCCC [octane] + COc1ccccc1
x2 = 0
Conditions | mass density, 293.15 K [kg/m3] | mass density, 298.15 K [kg/m3] | mass density, 303.15 K [kg/m3] | refractive index, 293.15 K | refractive index, 298.15 K | refractive index, 303.15 K | viscosity, 293.15 K [mPa·s] | viscosity, 298.15 K [mPa·s] | viscosity, 303.15 K [mPa·s]
[1] | 702.61 ± 0.84 | 698.57 ± 0.85 | 694.56 ± 0.85 | – | – | – | 0.5464 ± 0.01 | 0.5123 ± 0.0096 | 0.483 ± 0.0091
[2] | – | – | – | 1.3965 ± 0.0009 | 1.3947 ± 0.0009 | 1.3926 ± 0.0009 | – | – | –
